Assay results from patent US7378375B1, “Substituted pyridine herbicides” (Syngenta Crop Protection, Inc., priority 2000, dated 2008).

Columns and labels:
[1] = system: Monocotyledonous and dicotyledonous test plants; test: Herbicidal action before emergence of the plants (pre-emergence action), greenhouse pot test, 9-level rating after 4 weeks; format: in vivo; conditions: 250 g/ha, rated after 4 weeks, 9-level scale
Method in brief: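 Compounds applied pre-emergence as a spray (500 l water/ha) of aqueous suspension or emulsion onto soil immediately after sowing mono- and dicot species in pots. Greenhouse-grown; damage rated after 4 weeks on a 9-level scale (1=complete damage, 9=no effect).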

[2] = system: Monocotyledonous and dicotyledonous test plants; test: Post-emergence herbicidal action, greenhouse pot test, sprayed at the 2- to 3-leaf stage, 9-level rating after 2 to 3 weeks; format: in vivo; conditions: 250 g/ha, rated after 2 to 3 weeks, 9-level scale
Method in brief: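 Plants grown in standard soil in pots; test substances sprayed at the 2- to 3-leaf stage at optimum dosage (500 l water/ha) as aqueous suspension or emulsion from formulated concentrates. Plants then kept in the greenhouse under optimum conditions; rated after 2 to 3 weeks on a 9-level scale (1=complete damage, 9=no effect).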

SMILES: CC(=O)OCc1nc(C(F)(F)F)ccc1C(=O)C1=C(O)C2CCC(C2)C1=O.[K+] (centres unmarked)
- melting point: 145 to 150 °C

SMILES: COCc1nc(C(F)(F)F)ccc1C(=O)c1c(C)nn(C)c1O [1.001]
- melting point: 138 to 140 °C

SMILES: COCCOCc1nc(C(F)(F)F)ccc1C(=O)C1=C(O)C(C)(C)C(=O)C(C)(C)C1=O [1.012]
- melting point: 99 to 100 °C

SMILES: O=C(C1=C(O)C2CCC(C2)C1=O)c1ccc(C(F)(F)F)nc1COCC1CO1 (centres unmarked) [1.015]
- melting point: 54 to 56 °C

SMILES: C#CCOCc1nc(C(F)(F)F)ccc1C(=O)C1=C(O)C2CCC(C2)C1=O (centres unmarked) [1.016]
- melting point: 71 to 74 °C

SMILES: COCOCc1nc(C(F)(F)F)ccc1C(=O)C1=C(O)C2CCC(C2)C1=O (centres unmarked) [1.017]
- melting point: 95 to 98 °C

SMILES: C=CCOCc1nc(C(F)(F)F)ccc1C(=O)C1=C(O)C2CCC(C2)C1=O (centres unmarked) [1.018]
- melting point: 53 to 55 °C

SMILES: COCc1nc(C(F)(F)F)ccc1C(=O)c1cnn(C)c1O [1.019]
- melting point: 32 to 34 °C

SMILES: CCOCc1nc(C(F)(F)F)ccc1C(=O)c1cnn(C)c1O [1.020]
- melting point: 32 to 33 °C

SMILES: CCOCCOCc1nc(C(F)(F)F)ccc1C(=O)c1cnn(C)c1O [1.022]
- melting point: 38 to 39 °C

SMILES: COc1ccccc1OCc1nc(C(F)(F)F)ccc1C(=O)C1=C(O)C2CCC(C2)C1=O (centres unmarked) [1.028]
- melting point: 113 to 115 °C

SMILES: COC(=O)COCc1nc(C(F)(F)F)ccc1C(=O)C1=C(O)C2CCC(C2)C1=O (centres unmarked) [1.031]
- melting point: 106 to 107 °C

SMILES: CC(=O)OCCOCc1nc(C(F)(F)F)ccc1C(=O)C1=C(O)C2CCC(C2)C1=O (centres unmarked) [1.050]
- melting point: 90 to 93 °C

SMILES: CCCOCCOCc1nc(C(F)(F)F)ccc1C(=O)C1=C(O)C2CCC(C2)C1=O (centres unmarked) [1.052]
- melting point: 41 to 43 °C

SMILES: O=C(OCCOCc1nc(C(F)(F)F)ccc1C(=O)C1=C(OC(=O)c2ccccc2)C2CCC(C2)C1=O)c1ccccc1 (centres unmarked) [1.055]
- melting point: 96 to 98 °C

SMILES: CC(C)(C)C(=O)OC1=C(C(=O)c2ccc(C(F)(F)F)nc2COCCO)C(=O)C2CCC1C2 (centres unmarked) [1.059]
- melting point: 79 to 81 °C

SMILES: O=C(C1=C(O)C2CCC(C2)C1=O)c1ccc(C(F)(F)F)nc1COC1COC1 (centres unmarked) [1.065]
- melting point: 102 to 105 °C

SMILES: O=C(C1=C(O)C2CCC(C2)C1=O)c1ccc(C(F)(F)F)nc1COCCOCC(F)(F)F (centres unmarked) [1.066]
- melting point: 40 to 44 °C

SMILES: O=C(C1=C(O)C2CCC(C2)C1=O)c1ccc(C(F)(F)F)nc1COCc1ccccc1 (centres unmarked) [1.068]
- melting point: 68 to 69 °C

SMILES: O=C(C1=C(O)C2CCC(C2)C1=O)c1ccc(C(F)(F)F)nc1COCCCOCc1ccccc1 (centres unmarked) [1.069]
- melting point: 78 to 80 °C

SMILES: COCCOCc1nc(C(F)(F)F)ccc1C(=O)C1C(=O)CCC2(CC2)C1=O (centres unmarked) [1.070]
- melting point: 40 to 42 °C

SMILES: O=C(c1ccc(C(F)(F)F)nc1COCC1CCCO1)C1C(=O)C2CCC(C2)C1=O (centres unmarked) [1.073]
- melting point: 46 to 47 °C

SMILES: CC1(C)C(=O)C(C(=O)c2ccc(C(F)(F)F)nc2COCc2ccccc2)C(=O)C(C)(C)C1=O [1.076]
- melting point: 75 to 76 °C

SMILES: O=C(c1ccc(C(F)(F)F)nc1COCCCl)C1C(=O)C2CCC(C2)C1=O (centres unmarked) [1.080]
- melting point: 63 to 64 °C

SMILES: COCCOCc1nc(C(F)(F)F)ccc1C(=O)C1=C(O)CC(C)CC1=O (centres unmarked) [1.082]
- melting point: 76 to 78 °C

SMILES: CN(Cc1nc(C(F)(F)F)ccc1C(=O)C1=C(O)C2CCC(C2)C1=O)S(C)(=O)=O (centres unmarked) [1.090]
- melting point: 149 to 150 °C

SMILES: CN(Cc1nc(C(F)(F)F)ccc1C(=O)c1cnn(C)c1O)S(C)(=O)=O [1.091]
- melting point: 110 to 112 °C

SMILES: N#CCCOCc1nc(C(F)(F)F)ccc1C(=O)C1=C(O)C2CCC(C2)C1=O (centres unmarked) [A849-B52]
- Pre-emergence action rating, Abutilon [1]: 2
- Pre-emergence action rating, Amaranthus [1]: 1
- Pre-emergence action rating, Chenop. [1]: 1
- Pre-emergence action rating, Digitaria [1]: 2
- Pre-emergence action rating, Echino. [1]: 2
- Pre-emergence action rating, Panicum [1]: 1
- Post-emergence action rating, Abutilon [2]: 2
- Post-emergence action rating, Amaranth [2]: 2
- Post-emergence action rating, Chenop. [2]: 2
- Post-emergence action rating, Digitaria [2]: 2
- Post-emergence action rating, Echino. [2]: 3
- Post-emergence action rating, Ipopur. [2]: 2
- Post-emergence action rating, Panicum [2]: 2
- Post-emergence action rating, Xanth. [2]: 2

SMILES: O=C(C1=C(O)C2CCC(C2)C1=O)c1ccc(C(F)(F)F)nc1COCCCl (centres unmarked) [A850-B52]
- Pre-emergence action rating, Abutilon [1]: 1
- Pre-emergence action rating, Amaranthus [1]: 2
- Pre-emergence action rating, Chenop. [1]: 1
- Pre-emergence action rating, Digitaria [1]: 2
- Pre-emergence action rating, Echino. [1]: 1
- Pre-emergence action rating, Panicum [1]: 1
- Post-emergence action rating, Abutilon [2]: 2
- Post-emergence action rating, Amaranth [2]: 2
- Post-emergence action rating, Chenop. [2]: 1
- Post-emergence action rating, Digitaria [2]: 2
- Post-emergence action rating, Echino. [2]: 2
- Post-emergence action rating, Ipopur. [2]: 2
- Post-emergence action rating, Panicum [2]: 2
- Post-emergence action rating, Xanth. [2]: 2

SMILES: O=C(C1=C(O)C2CCC(C2)C1=O)c1ccc(C(F)(F)F)nc1COC1COCOC1 (centres unmarked) [A851-B52]
- Pre-emergence action rating, Abutilon [1]: 1
- Pre-emergence action rating, Amaranthus [1]: 1
- Pre-emergence action rating, Chenop. [1]: 1
- Pre-emergence action rating, Digitaria [1]: 1
- Pre-emergence action rating, Echino. [1]: 1
- Pre-emergence action rating, Panicum [1]: 1
- Post-emergence action rating, Abutilon [2]: 3
- Post-emergence action rating, Amaranth [2]: 2
- Post-emergence action rating, Chenop. [2]: 1
- Post-emergence action rating, Digitaria [2]: 3
- Post-emergence action rating, Echino. [2]: 4
- Post-emergence action rating, Ipopur. [2]: 3
- Post-emergence action rating, Panicum [2]: 3
- Post-emergence action rating, Xanth. [2]: 3

SMILES: O=C(C1=C(O)C2CCC(C2)C1=O)c1ccc(C(F)(F)F)nc1COCC1COCO1 (centres unmarked) [A852-B52]
- Pre-emergence action rating, Abutilon [1]: 4
- Pre-emergence action rating, Amaranthus [1]: 1
- Pre-emergence action rating, Chenop. [1]: 2
- Pre-emergence action rating, Digitaria [1]: 1
- Pre-emergence action rating, Echino. [1]: 1
- Pre-emergence action rating, Panicum [1]: 1
- Post-emergence action rating, Abutilon [2]: 3
- Post-emergence action rating, Amaranth [2]: 3
- Post-emergence action rating, Chenop. [2]: 1
- Post-emergence action rating, Digitaria [2]: 4
- Post-emergence action rating, Echino. [2]: 4
- Post-emergence action rating, Ipopur. [2]: 3
- Post-emergence action rating, Panicum [2]: 3
- Post-emergence action rating, Xanth. [2]: 3
